Reference: patent US20020045664A1, “Estrogen mimetics lacking reproductive tract effects” (The University of Georgia Research Foundation, Inc, priority 1999, published 2002)
“Also recorded” adds a separate entry of the source. Marks after values point to notes of the source that are not given here.

Legend:
MCF-7 cells = conditions: cited from earlier work; for EC50: concentration at which growth stimulation was 50% maximal, read-out: MCF-7 Cell Growth EC50; for maximal growth-stimulatory effect, as a percent of that of estradiol: MCF-7 cell proliferation assay
[1] = system: rat uterus (uterine weight gain); set-up: Rat Uterotrophic Assay % Efficacy: concentration or dose not given beside the values; conditions: cited from earlier work; for Rat Uterotrophic Assay % Efficacy: in vivo; for Rat Uterotrophic Assay ED50: dose at which uterine weight gain was 50% maximal
[2] = system: mouse uterus (uterine weight gain); conditions: dose at which uterine weight gain was 50% maximal; cited from earlier work
OVX rat [3] = test: OVX rat: cortical bone histomorphometry, tibial diaphysis; assay type: in vivo; conditions: OVX rats
Procedure: In the first experiment 50 female Sprague-Dawley rats that were approximately 90 days of age and weighed an average of 240 g at the beginning of the study were used. Animal care and handling was carried out solely at the AAALAC accredited animal facility at the University of Georgia College of Pharmacy, in accordance with a protocol approved by the University of Georgia Institutional Animal Care and Use Committee. On the day of surgery (day 0), all rats were anesthetized with an intraperitoneal (i.p.) injection of ketamine hydrochloride and xylazine at doses of 50 mg/kg body weight and 10 mg/kg body weight, respectively. […]
Bone measurements were performed with the Bioquant Bone Morphometry System (R&M Biometrics Corp., Nashville, Tenn.). Cortical bone tissue area and bone marrow area were measured in one section per animal at a magnification of 20×. Cortical bone area was calculated by subtracting marrow area from cortical bone tissue area. Cortical width was measured from the periosteal to the endocortical surfaces at four equally spaced sites at the anterior (cranial), posterior (caudal), medial, and lateral aspects of each cross-section. […]
Fluorochrome-based indices of bone formation were measured under UV illumination at magnifications of 100× and 200× for mineralizing surface and mineral apposition rate, respectively. […]

OVX rat [4] = test: OVX rat: cancellous bone histomorphometry, proximal tibial metaphysis; assay type: in vivo; conditions: OVX rats; for osteoblast surface: 35 days after surgery; for Mineral apposition rate (MAR): 35 days postsurgery
Procedure: (§1) In the first experiment 50 female Sprague-Dawley rats that were approximately 90 days of age and weighed an average of 240 g at the beginning of the study were used. Animal care and handling was carried out solely at the AAALAC accredited animal facility at the University of Georgia College of Pharmacy, in accordance with a protocol approved by the University of Georgia Institutional Animal Care and Use Committee. On the day of surgery (day 0), all rats were anesthetized with an intraperitoneal (i.p.) injection of ketamine hydrochloride and xylazine at doses of 50 mg/kg body weight and 10 mg/kg body weight, respectively. Ten rats were sham-operated during which the ovaries were exteriorized but replaced intact. Bilateral ovariectomies were performed in the remaining 40 rats from a dorsal approach. Each rat was housed individually at 25° C. with a light/dark cycle of 13 hours/11 hours. Food (Teklad 22/5 Rodent Diet, Madison, Wis.), with calcium and phosphate contents of 0.95% and 0.67%, respectively, was available ad libitum to all animals.
(§2) Sham-operated rats (N=10) and one of the four groups of OVX rats (N=10) were injected subcutaneously (s.c.) with vehicle (5% benzyl alcohol in corn oil) 5 days per week for 5 weeks. […] The above treatments were initiated on the first day after surgery. The dose level of 17β-estradiol was believed to be optimal based on earlier studies (T. Wronski et al., Endocrinology 123:681-686 (1988)). […] Each rat was injected s.c. with demeclocycline and calcein (Sigma Chemical Co., St. Louis, Mo.) at a dose of 15 mg/kg body weight on the 10th and 3rd days before sacrifice, respectively, to label sites of bone formation.
(§3) A second experiment, using 40 animals, was performed in exactly the same manner described above, in which effects of the s.c. administration of 3.7 mg/kg/day of 4HTA to one group of OVX animals was compared to the effects of vehicle or 17β-estradiol in three other groups (vehicle treated sham OVX, vehicle treated OVX, and 17β-estradiol-treated OVX rats).
The proximal halves of the tibiae were dehydrated by immersion in ethanol, and embedded undecalcified in methyl methacrylate. Longitudinal sections (4- and 8-μm thick) were cut with AO Autocut/Jung 1150 or 2050 microtomes. The 4-μm thick sections were stained according to the Von Kossa method with a tetrachrome counterstain (Polysciences Inc., Warrington, Pa.). Bone measurements were performed in cancellous bone tissue of the proximal tibial metaphysis beginning at distances 1 mm distal to the growth plate-metaphyseal junction to exclude the primary spongiosa. In general, two sections of the proximal tibia, with a total of 40-50 mm of cancellous bone perimeter, were sampled in each animal with an appreciable amount of cancellous bone. Additional sections were sampled in osteopenic animals to approximate the cancellous bone perimeter sampled in animals with greater cancellous bone mass.
Bone measurements were performed with the Bioquant Bone Morphometry System (R&M Biometrics Corp., Nashville, Tenn.) as described in T. Wronski et al. (Calcif. Tissue Int. 53:210-216 (1993)). Cancellous bone volume as a percentage of bone tissue area and osteoblast and osteoclast surfaces as percentages of total cancellous perimeter were measured in 4-μm thick, stained sections.
Fluorochrome-based indices of bone formation were measured in unstained, 8-μm-thick sections of the proximal tibial metaphysis. The percentage of cancellous bone surface with a double fluorochrome label (mineralizing surface) and mineral apposition rate were measured with the Bioquant system. In addition, bone formation rate (tissue level, total surface referent) was calculated by multiplying mineralizing surface by mineral apposition rate (H. Frost, Bone histomorphometry: analysis of trabecular bone dynamics. In: Recker R. R., Ed. Bone Histomorphometry: Techniques and Interpretation. Boca Raton, Fla.: CRC Press; 1983; 109-132).

OVX rat [5] = test: OVX rat: body weight and uterine wet weight; assay type: in vivo; conditions: for greater uterine weight compared to vehicle-treated OVX animals: 17β-estradiol: average of both experiments, 4HTA: vs respective OVX vehicle controls; for Body Weight, mean (SD) / Uterine Weight, mean (SD): OVX rats, 17β-estradiol 10 μg/kg/day; for Body Weight, mean (SD): s.c. 5 days/week for 5 weeks; for increase in overall body weight after ovariectomy: five-week course of the two studies, subcutaneous five days per week; for Uterine Weight, mean (SD): s.c. 5 weeks
Procedure: as §1, §2, §3
(§4) All rats were sacrificed by exsanguination from the abdominal aorta under ketamine/xylazine anesthesia. Failure to detect ovarian tissue and observation of marked atrophy of the uterine horns confirmed the success of ovariectomy. The body weight of each animal was recorded, as was uterine wet weight. Blood samples were allowed to coagulate at room temperature (2 hours) in a Vacutainer tube. Serum was obtained by centrifugation for 10 minutes at 3000 rpm, and samples were stored at −80° C. until analyzed. The right tibia was removed at necropsy, dissected free of muscle, and cut in half cross-sectionally with a hand-held saw (Dremel Moto Tool, Racine, Wis.). The bone samples were then placed in 10% phosphate-buffered formalin for 24 hours for tissue fixation.

OVX rat [6] = test: OVX rat: body weight and uterine wet weight; assay type: in vivo
OVX rat [7] = test: Serum cholesterol in OVX rats; assay type: in vivo; conditions: for Serum Cholesterol, mean (SD): experiment 1
Procedure: as §1, §2
All rats were sacrificed by exsanguination from the abdominal aorta under ketamine/xylazine anesthesia. Failure to detect ovarian tissue and observation of marked atrophy of the uterine horns confirmed the success of ovariectomy. The body weight of each animal was recorded, as was uterine wet weight. […] Serum was obtained by centrifugation for 10 minutes at 3000 rpm, and samples were stored at −80° C. until analyzed. […]

[8] = system: MCF 7 human breast cancer cells; conditions: estradiol-stimulated MCF-7 proliferation; cited from earlier work
OVX rat [9] = test: Serum rat osteocalcin radioimmunoassay in OVX rats; assay type: in vivo; conditions: for increase in serum OC: OVX animals, with respect to OVX vehicle controls; for Relative Serum OC Level, mean (SD): relative to OVX-17β-estradiol treated group (=100)
Procedure: as §1, §2, §3, §4
Materials, as well as standard protocols for their use, were obtained from Biomedical Technologies, Inc., Stoughton Mass. Serum samples from each member of the different treatment groups were diluted 1:20. Duplicate aliquots (100 μL) of each diluted sample were incubated in an orbital shaker at 80 rpm ([…]) for 16 hours with the first antibody and nonimmune serum in RIA buffer (final volume 0.5 mL). An aliquot of [^125I]-osteocalcin (10 nCi, 0.034 ng) in 100 μL of RIA buffer was then added to each tube and incubation was continued for 24 hours. Then the second (precipitating) antibody was added in 1 mL of modified buffer, and incubation was continued for 4 hours. Tubes were then centrifuged at 1500×g for 15 minutes. Pellets were washed with cold distilled water and recentrifuged as before. Supernatant was decanted and radioactivity in pellets was determined using a gamma counter. Serum osteocalcin levels were determined by comparing the sample values (cpm) to the linear region of a standard curve of cpm/pellet vs. the amount of osteocalcin present, obtained from incubations to which known amounts (0-0.35 ng) of osteocalcin had been added. […]

estrogen receptor = estrogen receptor (Homo sapiens, UniProt P03372); conditions: cited from earlier work
[10] = experiment 1, HPPA 3.6 mg/kg/day
[11] = experiment 2, 4HTA 3.7 mg/kg/day

Chain of estrogen receptor (P03372 whole entry): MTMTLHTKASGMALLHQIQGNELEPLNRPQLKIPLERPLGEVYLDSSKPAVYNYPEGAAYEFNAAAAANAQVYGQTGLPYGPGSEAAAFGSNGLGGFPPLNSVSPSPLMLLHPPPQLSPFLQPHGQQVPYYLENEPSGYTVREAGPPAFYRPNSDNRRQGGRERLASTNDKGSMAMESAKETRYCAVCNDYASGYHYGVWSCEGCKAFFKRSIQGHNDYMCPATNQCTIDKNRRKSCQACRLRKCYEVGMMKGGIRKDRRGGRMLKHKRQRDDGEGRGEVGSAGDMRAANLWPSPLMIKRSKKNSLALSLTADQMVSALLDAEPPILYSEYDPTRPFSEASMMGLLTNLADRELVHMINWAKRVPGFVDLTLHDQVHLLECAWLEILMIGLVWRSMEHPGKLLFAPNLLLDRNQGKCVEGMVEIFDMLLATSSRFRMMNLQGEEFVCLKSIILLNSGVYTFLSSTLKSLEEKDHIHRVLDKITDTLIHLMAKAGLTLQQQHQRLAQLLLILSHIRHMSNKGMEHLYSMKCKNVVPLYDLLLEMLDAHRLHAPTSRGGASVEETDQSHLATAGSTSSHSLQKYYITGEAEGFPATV

In the case of COc1ccc(C(Cl)=C(c2ccc(OC)cc2)c2ccc(OC)cc2)cc1 [chlorotrianisene], the “MCF-7 Cell Growth % Efficacy” value (MCF-7 cells) is given as 89%, the EC50 (MCF-7 cells) is given as 28 nM and the “Rat Uterotrophic Assay % Efficacy” value [1] is given as 100%. The “Uterotrophic Assay ED50, determined in the mouse” value [2] was 40^c μg/day.
With O=C(O)COc1ccc(C(Cc2ccccc2)c2ccc(O)cc2)cc1 (stereo not shown) [HPPA, 4-[1-(4-hydroxyphenyl)-2-phenylethyl]phenoxyacetic acid] the “periosteal bone formation rate” value (OVX rat [3]) was “did not inhibit”, the osteoblast surface (OVX rat [4]; experiment 1) was “partially suppressed” and the “Mineral apposition rate (MAR)” value (OVX rat [4]; experiment 1) was “no effect”. For the same compound, the “maximal growth-stimulatory effect, as a percent of that of estradiol” value (MCF-7 cells) was 102%, the “MCF-7 Cell Growth % Efficacy” value (MCF-7 cells) was 100% and the EC50 (MCF-7 cells) was 16 nM. For the same compound, the “greater uterine weight compared to vehicle-treated OVX animals” value (OVX rat [5]) was “did not differ appreciably”, the “Body Weight, mean (SD)” value (OVX rat [5]; [10]) was 342 (23)^b,c g and the “increase in overall body weight after ovariectomy” value (shortened to “increase in overall body weight”) (OVX rat [5]) was “not observed”. The “Rat Uterotrophic Assay ED50 (HPPA, Ex. III)” value (OVX rat [6]; s.c.) was over 3400 µg/day, the Emax (OVX rat [6]; sc, read-out: Rat Uterotrophic Assay % Efficacy (HPPA), s.c., Ex. III) was 0% and the “reduction in serum cholesterol with respect to vehicle-treated OVX animals” value (OVX rat [7]; 10 μmol/kg sc) was 10%. The “Serum Cholesterol, mean (SD)” value (OVX rat [7]) was 72 (1.9)^b,c,d mg/dL, the “estrogen antagonist activity in growth inhibition assay in the presence of estrogen” value [8] was “did not function as an estrogen antagonist; also recorded: no activity as an antiestrogen” and the “increase in serum OC” value (OVX rat [9]) was 34%.
In the case of C[C@]12CC[C@@H]3c4ccc(O)cc4CC[C@H]3[C@@H]1CC[C@@H]2O [17β-estradiol], the “periosteal bone formation rate” value (OVX rat [3]) is reported as “inhibited periosteal bone formation rate to a level below that of vehicle-treated control rats”, the osteoblast surface (OVX rat [4]; experiment 1) is reported as “suppressed at the control level” and the “Mineral apposition rate (MAR)” value (OVX rat [4]; experiment 1) is reported as “maintained at the control level”. The “mineralizing surface (cancellous)” value (OVX rat [4]; experiment 1, vs vehicle-treated control rats) was “significantly lower”, the cancellous bone volume (OVX rat [4]; second experiment, mean ±SD) was 24.0±5.5% and the “MCF-7 Cell Growth % Efficacy” value (MCF-7 cells) was 100%. For the same compound, the EC50 (MCF-7 cells) was 0.02 nM, the “Rat Uterotrophic Assay ED50” value [1] was 0.16 µg/day and the “Rat Uterotrophic Assay % Efficacy” value [1] was 100%. The “greater uterine weight compared to vehicle-treated OVX animals” value (OVX rat [5]) was 167%, the “Uterine Weight, mean (SD)” value (OVX rat [5]; [10]) was 269 (48)^b,c mg and the “Body Weight, mean (SD)” value (OVX rat [5]; [10]) was 310 (24)^b g. The “Uterine Weight, mean (SD)” value (OVX rat [5]; [11]) was 225 (30)^b,c mg, the “Body Weight, mean (SD)” value (OVX rat [5]; [11]) was 303 (12)^b g and the “increase in overall body weight” value (OVX rat [5]) was “not observed”. The “Serum Cholesterol, mean (SD)” value (OVX rat [7]) was 80 (3.5)^c mg/dL, the “increase in serum OC” value (OVX rat [9]) was “prevented this increase” and the “Relative Serum OC Level, mean (SD)” value (OVX rat [9]; experiment 1) was 100 (33)^b. For the same compound, the “Relative Serum OC Level, mean (SD)” value (OVX rat [9]; experiment 2) was 100 (16)^b.
In the case of CCC(=C(c1ccc(O)cc1)c1ccc(OCC(=O)O)cc1)c1ccccc1 [4HTA, (E,Z)-2-{4-[1-(p-hydroxyphenyl)-2-phenyl]-1-butenyl}phenoxyacetic acid], the “maximal growth-stimulatory effect, as a percent of that of estradiol” value (MCF-7 cells) is given as 79%, the “greater uterine weight compared to vehicle-treated OVX animals” value (OVX rat [5]) is given as 25% and the “Body Weight, mean (SD)” value (OVX rat [5]; [11]) is given as 305 (12)^b,c g. For the same compound, the “increase in overall body weight” value (OVX rat [5]) was “not observed”, the “estrogen antagonist activity in growth inhibition assay in the presence of estrogen” value [8] was “weak antagonist potency; also recorded: weakly inhibits” and the “increase in serum OC” value (OVX rat [9]) was “did not differ”. The “Relative Serum OC Level, mean (SD)” value (OVX rat [9]; experiment 2) was 188 (42)^c and the “relative estrogen receptor binding affinity (RBA)” value (estrogen receptor) was 20% of estradiol binding affinity.
In the case of CC/C(=C(/c1ccccc1)c1ccc(OCCN(C)C)cc1)c1ccccc1 [cis-tamoxifen], the “MCF-7 Cell Growth % Efficacy” value (MCF-7 cells) is listed as 100%, the “Rat Uterotrophic Assay ED50” value [1] is listed as 40 µg/day and the “Rat Uterotrophic Assay % Efficacy” value [1] is listed as 52%.
For CC/C(=C(/CC)c1ccc(O)cc1)c1ccc(O)cc1 [diethylstilbestrol], the “MCF-7 Cell Growth % Efficacy” value (MCF-7 cells) is given as 100%, the “Rat Uterotrophic Assay % Efficacy” value [1] is given as 100% and the “Uterotrophic Assay ED50, determined in the mouse” value [2] is given as 3^c μg/day.
For CC/C(=C(\c1ccccc1)c1ccc(OCCN(C)C)cc1)c1ccccc1 [trans-tamoxifen, (Z)-2-[4-(1,2-diphenyl-1-butenyl)phenoxy]-N,N-dimethylethanamine], the “MCF-7 Cell Growth % Efficacy” value (MCF-7 cells) is listed as 21%, the “Rat Uterotrophic Assay ED50” value [1] is listed as 10 µg/day and the “Rat Uterotrophic Assay % Efficacy” value [1] is listed as 12%.
